Publication PMC3185947 (British Journal of Cancer, 2011)

What was measured:
clinical = conditions: human, in vivo
Description: (§1) PK parameters were estimated by non-compartmental methods (WinNonlin v.3.1, Pharsight Corp., Mountain View, CA, USA).

[1] = Plasma pharmacokinetics of erlotinib and OSI-420 (HPLC, non-compartmental); conditions: erlotinib dose 425 mg m^−2, 1 patient;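 also: pharmacokinetic parameters derived by non-compartmental analysis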
Description: as §1

[2] = tested on: patients with previously treated advanced NSCLC; test: Erlotinib-related toxicities (worst grade per patient), NCI CTC Version 2.0; type: in vivo, human

C#Cc1cccc(Nc2ncnc3cc(OCCOC)c(OCCOC)cc23)c1 [erlotinib]
Cmax (clinical; 150 mg): 1910 ng/mL | Tmax (clinical; 150 mg): 2 h | Cmax (clinical; 200 mg): 2650 ng/mL | Tmax (clinical; 200 mg): 2 h | Cmax (clinical; 225 mg): 2540 ng/mL | Tmax (clinical; 225 mg): 2 h | Cmax (clinical; 250 mg): 2820 ng/mL | Tmax (clinical; 250 mg): 2.1 h | Cmax (clinical; 275 mg): 2190 ng/mL | Tmax (clinical; 275 mg): 1 h | Cmax (clinical; 300 mg): 2940 ng/mL | Tmax (clinical; 300 mg): 2 h | Cmax (clinical; 325 mg): 2800 ng/mL | Cmax (clinical; 350 mg): 1780 ng/mL | Tmax (clinical; 350 mg): 3.5 h | Cmax (clinical; 375 mg): 2770 ng/mL | Tmax (clinical; 375 mg): 1 h | Tmax (clinical; 400 mg): 2 h | Cmax (clinical; 425 mg): 2780 ng/mL | Cmax (clinical; 450 mg): 4100 ng/mL | Tmax (clinical; 450 mg): 8 h | Cmax (clinical; 475 mg): 2200 ng/mL | Tmax (clinical; 475 mg): 4.2 h | Erlotinib Tmax [1]: 4.0 h | Alopecia, grade 3–4 ([2]; Total (N=42)): 0 (0) n (%) | Alopecia, grade Any ([2]; Total (N=42)): 6 (14) n (%) | Anorexia, grade 3–4 ([2]; Total (N=42)): 1 (2) n (%) | Anorexia, grade Any ([2]; Total (N=42)): 11 (26) n (%) | Creatinine, grade 3–4 ([2]; Total (N=42)): 1 (2) n (%) | Creatinine, grade Any ([2]; Total (N=42)): 1 (2) n (%) | Diarrhea, grade 3–4 ([2]; Total (N=42)): 1 (2) n (%) | Diarrhea, grade Any ([2]; Total (N=42)): 33 (79) n (%) | Epistaxis, grade 3–4 ([2]; Total (N=42)): 0 (0) n (%) | Epistaxis, grade Any ([2]; Total (N=42)): 5 (12) n (%) | Fatigue, grade 3–4 ([2]; Total (N=42)): 3 (7) n (%) | Fatigue, grade Any ([2]; Total (N=42)): 17 (40) n (%) | Headache, grade 3–4 ([2]; Total (N=42)): 1 (2) n (%) | Headache, grade Any ([2]; Total (N=42)): 1 (2) n (%) | Nausea, grade 3–4 ([2]; Total (N=42)): 0 (0) n (%) | Nausea, grade Any ([2]; Total (N=42)): 22 (52) n (%) | Paronychia, grade 3–4 ([2]; Total (N=42)): 1 (2) n (%) | Paronychia, grade Any ([2]; Total (N=42)): 5 (12) n (%) | Skin fissures, grade 3–4 ([2]; Total (N=42)): 1 (2) n (%) | Skin fissures, grade Any ([2]; Total (N=42)): 5 (12) n (%) | Stomatitis, grade 3–4 ([2]; Total (N=42)): 0 (0) n (%) | Stomatitis, grade Any ([2]; Total (N=42)): 14 (33) n (%) | Vomiting, grade 3–4 ([2]; Total (N=42)): 0 (0) n (%) | Vomiting, grade Any ([2]; Total (N=42)): 15 (36) n (%) | Diarrhea, frequency ([2]; all 42 patients): 79% | Fatigue, frequency ([2]; all 42 patients): 40% | Nausea, frequency ([2]; all 42 patients): 52 % of patients | Stomatitis, frequency ([2]; all 42 patients): 33% | Vomiting, frequency ([2]; all 42 patients): 36% | Alopecia, grade 3–4 ([2]; erlotinib 100–150 mg (N=4)): 0 (0) n (%) | Alopecia, grade Any ([2]; erlotinib 100–150 mg (N=4)): 0 (0) n (%) | Anorexia, grade 3–4 ([2]; erlotinib 100–150 mg (N=4)): 0 (0) n (%) | Anorexia, grade Any ([2]; erlotinib 100–150 mg (N=4)): 2 (50) n (%) | Creatinine, grade 3–4 ([2]; erlotinib 100–150 mg (N=4)): 0 (0) n (%) | Creatinine, grade Any ([2]; erlotinib 100–150 mg (N=4)): 0 (0) n (%) | Diarrhea, grade 3–4 ([2]; erlotinib 100–150 mg (N=4)): 0 (0) n (%) | Diarrhea, grade Any ([2]; erlotinib 100–150 mg (N=4)): 4 (100) n (%) | Epistaxis, grade 3–4 ([2]; erlotinib 100–150 mg (N=4)): 0 (0) n (%) | Epistaxis, grade Any ([2]; erlotinib 100–150 mg (N=4)): 0 (0) n (%) | Fatigue, grade 3–4 ([2]; erlotinib 100–150 mg (N=4)): 0 (0) n (%) | Fatigue, grade Any ([2]; erlotinib 100–150 mg (N=4)): 3 (75) n (%) | Headache, grade 3–4 ([2]; erlotinib 100–150 mg (N=4)): 0 (0) n (%) | Headache, grade Any ([2]; erlotinib 100–150 mg (N=4)): 0 (0) n (%) | Nausea, grade 3–4 ([2]; erlotinib 100–150 mg (N=4)): 0 (0) n (%) | Nausea, grade Any ([2]; erlotinib 100–150 mg (N=4)): 3 (75) n (%) | Paronychia, grade 3–4 ([2]; erlotinib 100–150 mg (N=4)): 0 (0) n (%) | Paronychia, grade Any ([2]; erlotinib 100–150 mg (N=4)): 0 (0) n (%) | Skin fissures, grade 3–4 ([2]; erlotinib 100–150 mg (N=4)): 0 (0) n (%) | Skin fissures, grade Any ([2]; erlotinib 100–150 mg (N=4)): 1 (25) n (%) | Stomatitis, grade 3–4 ([2]; erlotinib 100–150 mg (N=4)): 0 (0) n (%) | Stomatitis, grade Any ([2]; erlotinib 100–150 mg (N=4)): 2 (50) n (%) | Vomiting, grade 3–4 ([2]; erlotinib 100–150 mg (N=4)): 0 (0) n (%) | Vomiting, grade Any ([2]; erlotinib 100–150 mg (N=4)): 2 (50) n (%) | Alopecia, grade 3–4 ([2]; erlotinib 175–200 mg (N=13)): 0 (0) n (%) | Alopecia, grade Any ([2]; erlotinib 175–200 mg (N=13)): 0 (0) n (%)
